Five compounds from EPA's ToxRefDB 2 can be followed below.

Data set [1] deals with rat. As to conditions: Subchronic oral toxicity in rodents, fischer, Water, dose end: 13 week, group: systemic.
In data set [2] the test system is rat. As to conditions: Neurotoxicity screening battery; sprague dawley; Oral; Gavage/Intubation; dose end: 13 week; group: cannot be grouped; systemic / hematology / [other] / [other] + systemic / hematology / heinz body / heinz body + systemic / hematology / leukocyte (wbc) count ….
The subject of data set [3] is mouse. As to conditions: Subchronic oral toxicity in rodents, b6c3f1, Water, dose end: 13 week, group: systemic.
Data set [4] concerns rat. The following applies: Combined chronic toxicity/carcinogenicity; fischer; Inhalation; Whole-Body; dose end: 26 month; group: systemic; systemic / pathology microscopic / spleen / congestion + systemic / pathology microscopic / eye / degeneration + systemic / pathology ….
For data set [5], the system named is mouse. As to conditions: Sub-acute repeat dose toxicity, b6c3f1, Oral, Water, dose end: 14 day, group: systemic.
Data set [6] relates to rabbit. The following applies: Prenatal developmental toxicity study, new zealand white, Oral, Gavage/Intubation, dose end: 18 GD, group: maternal.
In data set [7] the test system is rat. The following applies: Multigenerational reproductive toxicity study, sprague dawley, Oral, Gavage/Intubation, dose end: 2 generation, group: parental.
Data set [8] has as its system rat. The following applies: Sub-acute repeat dose toxicity, fischer, Oral, Water, dose end: 14 day, group: systemic.
Data set [9] has as its system mouse. As to conditions: Combined chronic toxicity/carcinogenicity; cd1; Inhalation; Whole-Body; dose end: 18 month; group: systemic; systemic / pathology microscopic / nose / [other] + systemic / pathology microscopic / nose / degeneration + systemic / pathology ….
Data set [10] has as its system rat. The following applies: Prenatal developmental toxicity study, sprague dawley, Oral, Gavage/Intubation, dose end: 15 GD, group: maternal.
Data set [11] has as its system rat. The following applies: Prenatal developmental toxicity study, sprague dawley, Oral, Gavage/Intubation, dose end: 15 GD, group: maternal. This is another data set of the same source.
The subject of data set [12] is rabbit. The following applies: Prenatal developmental toxicity study, new zealand white, Oral, Gavage/Intubation, dose end: 18 GD, group: maternal. This is another data set of the same source.
Data set [13] has as its system mouse. As to conditions: Carcinogenicity, b6c3f1, Oral, Feed, dose end: 104 week, group: systemic.
Data set [14] has as its system rat. The following applies: Carcinogenicity, fischer, Oral, Feed, dose end: 104 week, group: systemic.
The subject of data set [15] is rat. The following applies: Sub-acute repeat dose toxicity, sprague dawley, Oral, Feed, dose end: 28 day, group: systemic.
Data set [16] relates to rat. As to conditions: Subchronic inhalation toxicity, fischer, Whole-Body, dose end: 13 week, group: systemic.
The subject of data set [17] is rabbit. The following applies: Prenatal developmental toxicity study, new zealand white, Inhalation, Whole-Body, dose end: 18 GD, group: maternal.
In data set [18] the test system is rat. The following applies: Prenatal developmental toxicity study, sprague dawley, Inhalation, Whole-Body, dose end: 15 GD, group: maternal.
Data set [19] deals with mouse. The following applies: Carcinogenicity; b6c3f1; Oral; Feed; dose end: 80 week; group: systemic; systemic / pathology microscopic / liver / carcinoma + systemic / pathology microscopic / liver / neoplastic nodule + systemic / in life ….
Data set [20] deals with rat. As to conditions: Carcinogenicity, fischer, Oral, Feed, dose end: 80 week, group: systemic.
The mark [21] stands for this setting: systemic / hematology / erythrocyte (rbc) count differential / erythrocyte (rbc) + systemic / hematology / hematocrit (hct) / hematocrit (….
The mark [22] stands for this setting: systemic / hematology / erythrocyte (rbc) count differential / erythrocyte (rbc) + systemic / hematology / hemoglobin (hgb) / hemoglobin (….
Where [23] appears, read: systemic / pathology microscopic / nose / degeneration + systemic / pathology microscopic / spleen / hematopoietic cell proliferation + ….
Setting [24] is: systemic / in life observation / body weight / body weight.
Setting [25] is: systemic / in life observation / body weight / body weight + systemic / in life observation / water consumption / water consumption.
[26] abbreviates: reproductive / reproductive performance / aborted / aborted + reproductive / reproductive performance / resorptions / resorptions + systemic….
The mark [27] stands for this setting: systemic / pathology microscopic / liver / hematopoietic cell proliferation + systemic / pathology microscopic / liver / hemosiderosis + ….
The mark [28] stands for this setting: systemic / in life observation / body weight / body weight + systemic / in life observation / water consumption / water consumption + ….
Setting [29] is: systemic / hematology / methemoglobin / methemoglobin + systemic / hematology / reticulocyte / reticulocyte.
Where [30] appears, read: systemic / hematology / methemoglobin / methemoglobin + systemic / hematology / reticulocyte / reticulocyte + systemic / in life observation….
Where [31] appears, read: systemic / in life observation / body weight / body weight + systemic / in life observation / body weight / body weight gain + systemic / in….
[32] abbreviates: systemic / pathology gross / spleen / enlarged.
Setting [33] is: systemic / in life observation / body weight / body weight + systemic / pathology microscopic / liver / hepatocellular carcinoma + systemic….
Setting [34] is: systemic / in life observation / body weight / body weight + systemic / pathology microscopic / urinary bladder / hyperplasia.
Where [35] appears, read: systemic / in life observation / body weight / body weight + systemic / pathology microscopic / urinary bladder / hyperplasia + systemic / ….
Setting [36] is: systemic / clinical chemistry / lactic acid dehydrogenase (ldh) / lactic acid dehydrogenase (ldh) + systemic / clinical chemistry / sorbitol….
Where [37] appears, read: systemic / organ weight / adrenal gland / absolute + systemic / organ weight / adrenal gland / relative to body weight + systemic / organ ….
[38] abbreviates: systemic / in life observation / body weight / body weight gain + systemic / in life observation / clinical signs / oral discharge + ….
[39] abbreviates: systemic / in life observation / food consumption / food consumption.
Setting [40] is: systemic / in life observation / body weight / body weight gain + systemic / in life observation / clinical signs / red or crusty deposits ….
Setting [41] is: systemic / in life observation / body weight / body weight + systemic / pathology microscopic / thyroid gland / hyperplasia.
[42] abbreviates: systemic / in life observation / body weight / body weight + systemic / pathology microscopic / thyroid gland / hyperplasia + systemic / in ….

For orientation: LOAEL means the lowest tested level that showed an adverse finding. A word on the NOAEL: it is the highest dose or exposure tested at which no adverse effect was seen.

For the compound `CCC(C)=NO` [2-Butanone oxime], the LOAEL in the data set with rat [1] (setting [21]) was 50 mg/kg/day; with rat [2], greater than 400 mg/kg/day; with mouse [3] (systemic / pathology microscopic / nose / degeneration + systemic / pathology microscopic / spleen / hematopoietic cell proliferation), 755 mg/kg/day; with rat [4], greater than 375 ppm; with mouse [5] (setting [24]), 475 mg/kg/day; in the data set on rabbit [6] (setting [26]), greater than 40 mg/kg/day. Further, the LOAEL is greater than 200 mg/kg/day in the data set on rat [7] (setting [21]); 280 mg/kg/day with rat [8] (setting [24]); greater than 375 ppm in the data set on mouse [9]; greater than 400 mg/kg/day in the data set on rat [10] (setting [30]); greater than 600 mg/kg/day in the data set on rat [11] (setting [31]); greater than 80 mg/kg/day with rabbit [12] (setting [26]). In addition, the NOAEL is 25 mg/kg/day with rat [1] (setting [21]); no less than 400 mg/kg/day in the data set with rat [2]; 515 mg/kg/day in the data set on mouse [3] (setting [23]); no less than 375 ppm in the data set with rat [4]; 300 mg/kg/day in the data set on mouse [5] (setting [25]); no less than 40 mg/kg/day with rabbit [6] (setting [26]). In addition, the NOAEL was no less than 200 mg/kg/day in the data set with rat [7] (setting [21]); 130 mg/kg/day in the data set on rat [8] (setting [28]); no less than 375 ppm in the data set on mouse [9]; no less than 400 mg/kg/day in the data set on rat [10] (setting [30]); no less than 600 mg/kg/day in the data set on rat [11] (setting [31]); no less than 80 mg/kg/day in the data set on rabbit [12] (setting [26]). For the same compound, the LEL was determined as 25 mg/kg/day in the data set with rat [1] (setting [22]); 40 mg/kg/day with rat [2]; 200 mg/kg/day with mouse [3] (systemic / pathology microscopic / urinary bladder / hyperplasia); 15 ppm in the data set on rat [4]; 475 mg/kg/day in the data set with mouse [5] (setting [25]); 24 mg/kg/day in the data set on rabbit [6] (systemic / in life observation / body weight / body weight gain + systemic / in life observation / food consumption / food consumption). The LEL was determined as 10 mg/kg/day with rat [7] (setting [27]); 130 mg/kg/day in the data set with rat [8] (systemic / in life observation / water consumption / water consumption + systemic / organ weight / spleen / absolute + systemic / organ …); 15 ppm in the data set on mouse [9]; 25 mg/kg/day with rat [10] (setting [29]); 60 mg/kg/day in the data set with rat [11] (setting [32]); 10 mg/kg/day with rabbit [12] (setting [29]). The NEL in the data set with rat [1] (setting [22]) is less than 25 mg/kg/day; in the data set with rat [2], less than 40 mg/kg/day; with mouse [3] (setting [23]), 110 mg/kg/day; in the data set with rat [4], less than 15 ppm; with mouse [5] (setting [25]) it was 300 mg/kg/day; in the data set on rabbit [6] (setting [26]), 14 mg/kg/day. The NEL was less than 10 mg/kg/day with rat [7] (setting [27]); 70 mg/kg/day in the data set on rat [8] (setting [28]); less than 15 ppm in the data set on mouse [9]; less than 25 mg/kg/day with rat [10] (setting [29]); less than 60 mg/kg/day in the data set with rat [11] (setting [32]); less than 10 mg/kg/day with rabbit [12] (setting [29]).

`COc1ccc(C)cc1N` [2-Methoxy-5-methylaniline]: in the data set on mouse [13] (setting [24]), the LOAEL is 330 mg/kg/day and the no observed adverse effect level (NOAEL) was less than 330 mg/kg/day. Moreover, in the data set with mouse [13] (setting [33]), the LEL is 330 mg/kg/day and the NEL is less than 330 mg/kg/day. In addition, in the data set with rat [14] (setting [34]), the LOAEL came out at 250 mg/kg/day and the NOAEL is less than 250 mg/kg/day. In the data set with rat [14] (setting [35]), the LEL amounted to 250 mg/kg/day and the NEL was less than 250 mg/kg/day.

Take `ClC(Cl)(Cl)c1ccccc1` [Benzotrichloride]: in the data set on rat [15] (setting [36]), the lowest observed adverse effect level (LOAEL) was greater than 25 mg/kg/day, the NEL worked out at 0.025 mg/kg/day and the NOAEL is no less than 25 mg/kg/day. The compound also gave an LEL in the data set on rat [15] (systemic / clinical chemistry / sorbitol dehydrogenase / sorbitol dehydrogenase) of 0.25 mg/kg/day.

As to `CC(C)c1ccccc1` [Cumene], the values for the NEL in the data set on rat [16] (systemic / in life observation / clinical signs / body temperature + systemic / in life observation / clinical signs / motor activity), in the data set on rabbit [17] (setting [39]) and in the data set on rat [18] (setting [40]) were 100 ppm, less than 500 ppm and 100 ppm, respectively. The LEL with rat [16] (systemic / in life observation / clinical signs / motor activity + systemic / clinical chemistry / glucose / glucose + systemic / hematology…), in the data set on rabbit [17] (setting [39]) and with rat [18] (setting [39]) was 500 ppm each time. The LOAEL with rat [16] (setting [37]) was greater than 1200 ppm; in the data set with rabbit [17] (setting [38]), greater than 2300 ppm; in the data set on rat [18] (setting [40]), greater than 1200 ppm. The NOAEL with rat [16] (setting [37]) is no less than 1200 ppm; in the data set on rabbit [17] (setting [38]), no less than 2300 ppm; in the data set on rat [18] (setting [40]), no less than 1200 ppm.

Turning to `COP(=O)(OC)O/C(=C/Cl)c1cc(Cl)c(Cl)cc1Cl` [Tetrachlorovinphos], in the data set on mouse [19], the LEL came out at 1200 mg/kg/day, the LOAEL was greater than 2400 mg/kg/day, the NEL is less than 1200 mg/kg/day and the NOAEL is no less than 2400 mg/kg/day. In addition, in the data set on rat [20] (setting [41]), the LOAEL was 212 mg/kg/day and the NOAEL was less than 212 mg/kg/day. Also, in the data set with rat [20] (setting [42]), the LEL is 212 mg/kg/day and the NEL was less than 212 mg/kg/day.
